According to US20250026748A1, “N-(5-SUBSTITUTED-[(1,3,4-THIADIAZOLYL) OR (THIAZOLYL)])(SUBSTITUTED)CARBOXAMIDE COMPOUNDS AND USE THEREOF FOR INHIBITING HUMAN POLYMERASE THETA” (Repare Therapeutics Inc., priority 2021, published 2025):

Target: PolQ ATPase enzyme (1-894) (Homo sapiens (Human), UniProt O75417)
Experiment: Polθ ATPase enzymatic assay (0.5 nM enzyme concentration), ADP-Glo
Type: biochemical
Conditions: average IC50; 0.5 nM PolQ ATPase enzyme (1-894)
Protocol: PolQ ATPase enzyme (1-894) at 0.5 nM is incubated with a 10-point concentration response of inhibitors for 15 min at rt in the following buffer: 50 mM Tris Cl pH 7.5, 10% glycerol, 5 mM DTT, 10 mM MgCl2, 0.1 mg/ml BSA. Following pre-incubation with inhibitors, DNA (Fork C) at 20 nM and ATP at 100 μM are added to start the reaction. Enzymatic reaction proceeds at rt for 180 min ATP consumption is measured using the ADP-Glo assay from Promega. Luminescence is read on the Envision and IC50 are determined using the variable slope 4-parameters equation.
Oligos are annealed by heating at 9500 for 5 min in the following buffer (10 mM Tris-HCl pH7.5, 50 mM NaCl, 1 mM EDTA) and cooled to rt. […]

Sequence of PolQ ATPase enzyme (1-894) (O75417 1-894): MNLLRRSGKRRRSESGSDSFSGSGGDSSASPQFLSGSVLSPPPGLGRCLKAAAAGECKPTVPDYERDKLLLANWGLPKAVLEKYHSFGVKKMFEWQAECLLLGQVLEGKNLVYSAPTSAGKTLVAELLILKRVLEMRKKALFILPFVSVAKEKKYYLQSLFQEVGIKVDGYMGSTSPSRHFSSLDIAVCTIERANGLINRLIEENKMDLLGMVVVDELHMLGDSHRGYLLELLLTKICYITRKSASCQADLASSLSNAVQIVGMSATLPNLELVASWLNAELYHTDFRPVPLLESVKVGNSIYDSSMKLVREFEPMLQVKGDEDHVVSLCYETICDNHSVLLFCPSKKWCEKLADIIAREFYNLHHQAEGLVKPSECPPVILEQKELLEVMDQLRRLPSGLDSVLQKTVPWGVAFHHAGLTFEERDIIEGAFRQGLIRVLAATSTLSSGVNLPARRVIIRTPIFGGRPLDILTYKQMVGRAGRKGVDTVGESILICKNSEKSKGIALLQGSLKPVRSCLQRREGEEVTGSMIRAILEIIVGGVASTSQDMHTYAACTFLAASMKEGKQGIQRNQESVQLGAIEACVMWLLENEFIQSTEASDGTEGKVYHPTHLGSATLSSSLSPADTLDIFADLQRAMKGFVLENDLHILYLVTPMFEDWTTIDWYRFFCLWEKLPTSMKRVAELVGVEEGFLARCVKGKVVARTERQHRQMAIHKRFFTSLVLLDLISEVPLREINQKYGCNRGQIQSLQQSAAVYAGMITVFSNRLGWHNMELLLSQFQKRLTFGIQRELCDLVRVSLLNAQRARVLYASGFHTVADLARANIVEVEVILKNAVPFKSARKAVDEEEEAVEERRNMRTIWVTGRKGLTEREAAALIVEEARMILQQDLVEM

Compound | IC50
Cc1cc(C#Cc2nnc(NC(=O)c3ccncc3-c3cc(Cl)ncc3OC(F)F)s2)n[nH]1 [Compound 106] | < 0.25 nM
COc1cnc(C(F)F)cc1-c1cc(N(C)C)ncc1C(=O)Nc1nnc(C#CC2CC2)s1 [Compound 286] | 21 nM
COc1cnc(C(F)(F)F)cc1-c1cnccc1C(=O)Nc1nnc(C2CC2c2ccc(C#N)cc2)s1 (stereo not shown) [Compound 90] | 0.8 nM
CNC(=O)Cn1cc(-c2cc(C(F)(F)F)ccc2OC)c(C(=O)Nc2nnc(C3CC3c3ccc(C#N)cc3)s2)cc1=O (stereo not shown) [Compound 92] | 0.25 nM
COc1cnc(C(F)F)cc1-c1cc(-c2cnn(CC#N)c2)ncc1C(=O)Nc1nnc(C#CC2CC2)s1 [Compound 419] | 0.72 nM
COc1cnc(Cl)cc1-c1cc(N2CCCS2(=O)=O)ccc1C(=O)Nc1nnc(C#CC2CC2)s1 [Compound 311] | 8.1 nM
COc1cnc(C(F)F)cc1-c1cc(-c2ccc(=O)n(C)c2)ccc1C(=O)Nc1nnc(C#CC2CC2)s1 [Compound 202] | 0.29 nM
COc1cnc(Cl)cc1-c1cc(C#N)ncc1C(=O)Nc1nnc(C#CC2CC2)s1 [Compound 72] | 0.62 nM
COc1cnc(C(F)(F)F)cc1-c1cn(C)c(=O)cc1C(=O)Nc1nnc(C#CC2CC23CC3)s1 (stereo not shown) [Compound 58] | 0.91 nM
COc1cnc(C(F)F)cc1-c1cc(-c2cnn(S(C)(=O)=O)c2)ncc1C(=O)Nc1nnc(C#CC2CC2)s1 [Compound 393] | < 0.25 nM
COc1cnc(C(F)F)cc1-c1cc(-n2cccc(Cl)c2=O)ncc1C(=O)Nc1nnc(C#CC2CC2)s1 [Compound 455] | < 0.25 nM
COc1cnc(C(F)F)cc1-c1cc(-c2cccc(C)n2)ncc1C(=O)Nc1nnc(C#CC2CC2)s1 [Compound 422] | 0.54 nM
COc1cnc(C(F)F)cc1-c1cc(C(=O)N(C)C)ccc1C(=O)Nc1nnc(C#CC2CC2)s1 [Compound 258] | 2.9 nM
COc1ccc(C(F)(F)F)cc1-c1cn(C)c(=O)cc1C(=O)Nc1nnc(C#CC2CCOCC2)s1 [Compound 337] | 9.2 nM
COc1ccc(C(F)(F)F)cc1-c1cn(CC(=O)N(C)C)c(=O)cc1C(=O)Nc1nnc(C#Cc2cc(C)[nH]n2)s1 [Compound 81] | < 0.25 nM
COc1cnc(C(F)F)cc1-c1cc(N2CCN(C(C)=O)CC2=O)ncc1C(=O)Nc1nnc(C#CC2CC2)s1 [Compound 357] | < 0.25 nM
O=C(Nc1nnc(C#CC2CC2)s1)c1cc2ncnn2cc1-c1cc(Cl)ncc1OC(F)F [Compound 50] | 2.4 nM
COc1ccc(C(F)(F)F)nc1-c1cn(CC(=O)N(C)C)c(=O)cc1C(=O)Nc1nnc(C#CC2CC2)s1 [Compound 51] | 2.1 nM
CNC(=O)Cn1cc(-c2nc(C(F)(F)F)ccc2OC)c(C(=O)Nc2nnc(C#CC3CC3)s2)cc1=O [Compound 52] | 2.4 nM
COc1cnc(C(F)F)cc1-c1cc(CC(=O)N(C)C)ccc1C(=O)Nc1nnc(C#CC2CC2)s1 [Compound 265] | < 0.25 nM
COc1ccc(C(F)(F)F)cc1-c1cn(C)c(=O)cc1C(=O)Nc1nnc(C#Cc2cc(C)[nH]n2)s1 [Compound 102] | 1.2 nM
COc1cnc(C(F)F)cc1-c1cc(-c2ccn(C(F)F)n2)ncc1C(=O)Nc1nnc(C#CC2CC2)s1 [Compound 350] | < 0.25 nM
COc1cnc(C(F)F)cc1-c1cc(-c2nnc(N(C)C)o2)ccc1C(=O)Nc1nnc(C#CC2CC2)s1 [Compound 408] | 1.4 nM

Compound | IC50
COc1cnc(C(F)F)cc1-c1cc(N2CCN(C)C(=O)C2)ncc1C(=O)Nc1nnc(C#CC2CC2)s1 [Compound 128] | 4 nM
O=C(Nc1nnc(C#CC2CC2)s1)c1cc(=O)n(Cc2nccs2)cc1-c1cc(C(F)(F)F)ccc1Cl [Compound 65] | 2.2 nM
Cc1nnc(Cn2cc(-c3cc(C(F)F)ncc3C)c(C(=O)Nc3ncc(C#CC4CC4)s3)cc2=O)o1 [Compound 126] | < 0.25 nM
COc1cnc(C(F)(F)F)cc1-c1cnccc1C(=O)Nc1nnc(C#CC2CC2)s1 [Compound 91] | 2.3 nM
COc1cnc(C(F)F)cc1-c1cc(-c2cnn(C3COC3)c2)ccc1C(=O)Nc1nnc(C#CC2CC2)s1 [Compound 372] | 0.39 nM
Cc1ccn(-c2cc(-c3cc(C(F)F)ncc3Cl)c(C(=O)Nc3nnc(C#CC4CC4)s3)cn2)c(=O)c1 [Compound 448] | < 0.25 nM
CNC(=O)Cn1cc(-c2cc(C(F)(F)F)cnc2OC)c(C(=O)Nc2nnc(C#CC3CC3)s2)cc1=O [Compound 89] | 1.2 nM
COc1cnc(C(F)F)cc1-c1cnccc1C(=O)Nc1nnc([C@H]2C[C@@H]2c2ccc(C#N)cc2)s1 [Compound 275] | 3.1 nM
Cc1cnc(Cl)cc1-c1cnccc1C(=O)Nc1nnc(C#CC2CC2)s1 [Compound 299] | 0.6 nM
COc1cnc(Cl)cc1-c1cnccc1C(=O)Nc1nnc(C#CC2CC23CC3)s1 (stereo not shown) [Compound 100] | < 0.25 nM
COc1cnc(Cl)cc1-c1cc(N(C)C(C)=O)ccc1C(=O)Nc1nnc(C#CC2CC2)s1 [Compound 294] | 0.29 nM
COc1cnc(C(F)F)cc1-c1cc(-c2nnc(C)o2)ccc1C(=O)Nc1nc(C#CC2CC2)cs1 [Compound 374] | > 100 nM
COc1cnc(C(F)F)cc1-c1cc(-n2cccc(OC)c2=O)ncc1C(=O)Nc1nnc(C#CC2CC2)s1 [Compound 438] | < 0.25 nM
COc1cnc(C(F)F)cc1-c1cc(CC#N)ccc1C(=O)Nc1ncc(C#CC2CC2)s1 [Compound 193] | 2.5 nM
COc1cnc(C(F)F)cc1-c1cc(N2CCOCC2)ccc1C(=O)Nc1nnc(C#CC2CC2)s1 [Compound 239] | 18 nM
COc1cnc(C(F)F)cc1-c1cc(N2CCOCC2=O)ccc1C(=O)Nc1nnc(C#CC2CC2)s1 [Compound 108, N-(5-(cyclopropylethynyl)-1,3,4-thiadiazol-2-yl)-2-(2-(difluoromethyl)-5-methoxypyridin-4-yl)-4-(3-oxomorpholino)benzamide] | < 0.25 nM
COc1cnc(C(F)F)cc1-c1cc(C#CCN2CCOC[C@H]2C)ncc1C(=O)Nc1nnc(C#CC2CC2)s1 [Compound 189] | < 0.25 nM
COc1ccc(C(F)(F)F)nc1-c1cnccc1C(=O)Nc1nnc(C#CC2CC2)s1 [Compound 329] | 4.1 nM
COc1cnc(C(F)F)cc1-c1cc(CC(=O)N(C)C)ncc1C(=O)Nc1ncc(C#CC2CC2)s1 [Compound 200] | < 0.25 nM
COc1cnc(Cl)cc1-c1cn2c(C(N)=O)cnc2cc1C(=O)Nc1nnc(C#CC2CC2)s1 [Compound 342] | 13 nM
COc1cnc(C(F)F)cc1-c1cc(-n2ccc(C)c(F)c2=O)ncc1C(=O)Nc1nnc(C#CC2CC2)s1 [Compound 466] | < 0.25 nM
COc1cnc(C(F)F)cc1-c1cc(C#CCN2CCOCC2)ncc1C(=O)Nc1nnc(C#CC2CC2)s1 [Compound 218] | 0.25 nM
[2H]C([2H])([2H])N(C(=O)C1CC(C)(O)C1)c1ccc(C(=O)Nc2nnc(C#CC3CC3)s2)c(-c2cc(C(F)F)ncc2OC)c1 (stereo not shown) [Compound 224] | 0.35 nM

Compound | IC50
COc1cnc(C(F)F)cc1-c1ccncc1C(=O)Nc1nnc(C#CC2CC2)s1 [Compound 316] | 1.6 nM
C#C[C@@H]1C[C@H]1c1nnc(NC(=O)c2ccc(N3CCOCC3=O)cc2-c2cc(C(F)F)ncc2OC)s1 [Compound 177] | 0.39 nM
COc1cnc(C(F)F)cc1-c1cc(-c2cnn(C3CCOCC3)c2)ccc1C(=O)Nc1nnc(C#CC2CC2)s1 [Compound 188] | 1.9 nM
C#C[C@H]1CC1c1nnc(NC(=O)c2ccc(-c3nnc(C)o3)cc2-c2cc(C(F)F)ncc2OC)s1 (stereo partly shown) [Compound 373] | 4.6 nM
COc1cnc(C)cc1-c1cnccc1C(=O)Nc1nnc(C#CC2CC2)s1 [Compound 70] | 2.5 nM
COc1ccc(C(F)(F)F)cc1-c1cnccc1C(=O)Nc1nnc(C2CC2c2ccc(C#N)cc2)s1 (stereo not shown) [Compound 30] | 0.76 nM
COc1cnc(C(F)F)cc1-c1cc(CC#N)ncc1C(=O)Nc1nnc(C#CC2CC2)s1 [Compound 226] | 0.61 nM
Cc1nnc(Cn2cc(-c3cc(C(F)(F)F)ccc3Cl)c(C(=O)Nc3nnc(C#CC4CC4)s3)cc2=O)o1 [Compound 61] | < 0.25 nM
COc1cnc(C(F)F)cc1-c1cc(CC(=O)N(C)C)ccc1C(=O)Nc1ncc(C#CC2CC2)s1 [Compound 215] | 0.31 nM
COc1cnc(C(F)F)cc1-c1cc(N2CCOC[C@H]2C)ncc1C(=O)Nc1nnc(C#CC2CC2)s1 [Compound 379] | 18 nM
COc1cnc(C(F)(F)F)nc1-c1cnccc1C(=O)Nc1nnc(C#CC2CC2)s1 [Compound 338] | 4.7 nM
COc1ncc(C(F)(F)F)cc1-c1cnccc1C(=O)Nc1nnc(C#Cc2cc(C)[nH]n2)s1 [Compound 88] | 2.4 nM
COc1cnc(Cl)nc1-c1cn(C)c(=O)cc1C(=O)Nc1nnc(C#CC2CC2)s1 [Compound 335] | 4.3 nM
COc1cnc(Cl)cc1-c1cn(CC(=O)N2CCOCC2)c(=O)cc1C(=O)Nc1nnc(C#CC2CC2)s1 [Compound 347] | 3.4 nM
COc1cnc(C(F)F)cc1-c1cc(N2CCCCC2=O)ncc1C(=O)Nc1nnc(C#CC2CC2)s1 [Compound 192] | 0.33 nM
COc1cnc(C(F)F)cc1-c1cc(-n2ccc(C)c(C)c2=O)ncc1C(=O)Nc1nnc(C#CC2CC2)s1 [Compound 467] | < 0.25 nM
COc1cnc(C(F)F)cc1-c1cc(C#CC(C)(C)CO)ncc1C(=O)Nc1nnc(C#CC2CC2)s1 [Compound 241] | 0.33 nM
Cc1nnc(-n2cc(-c3cc(C(F)(F)F)ccc3Cl)c(C(=O)Nc3ncc(C#CC4CC4)s3)cc2=O)o1 [Compound 464] | < 0.25 nM
COc1cnc(Cl)cc1-c1cc(-c2cn(C)nn2)ccc1C(=O)Nc1nnc(C#CC2CC2)s1 [Compound 300] | 0.5 nM
COc1cnc(C(F)F)cc1-c1cc(OC2CCN(C)C2=O)ncc1C(=O)Nc1nnc(C#CC2CC2)s1 (stereo not shown) [Compound 182] | 1.2 nM
COc1cnc(C(F)F)cc1-c1cc(N2CC(C)(C)N(C)CC2=O)ncc1C(=O)Nc1nnc(C#CC2CC2)s1 [Compound 471] | 2.1 nM
